According to patent publication US20260137668A1, “EZH2 INHIBITION THERAPIES FOR THE TREATMENT OF BRCA1-ASSOCIATED PROTEIN (BAP1) MUTATED CANCERS” (Constellation Pharmaceuticals, Inc., priority 2022, published 2026):

Experiments:
[1] = tested on: pleural or peritoneal BAP1 loss mesothelioma; assay: human clinical phase 2 study, Compound 1 monotherapy, response by cancer cohort; format: in vivo; settings: intermediate cut-off date
Method: As part of a human clinical phase 2 study, subjects with pleural or peritoneal BAP1 loss mesothelioma were administered 350 mg/day Compound 1 for up to about 7.5 months (FIG. 1). Compound 1 was administered orally as a single agent (monotherapy). The cancers in each subject were known to have BAP1 mutations as determined by next generation sequencing (NGS) or local immunohistochemistry (IHC) testing prior to treatment. A complete response is characterized as disappearance of all lesions, a partial response is characterized as at least a 30% decrease in the sum of the longest diameter (LD) of target lesions, taking as reference the baseline sum LD; stable disease is characterized as neither sufficient shrinkage to qualify for partial response nor sufficient increase to qualify for progressive disease, taking as reference the smallest sum diameters; and progressive disease is characterized as at least a 20% increase in the sum of the LD of target lesions, taking as reference the smallest sum LD recorded since the treatment started or the appearance of one or more new lesions.

H2052 = assay: CellTiter-Glo 2.0 long-term cell viability assay; format: cell-based; settings: Homo sapiens, H2052, BAP1 wildtype
Method: (§1) The ability of Compound 1 to selectivity suppress mesothelioma cancer cell viability was assessed in a panel of cell lines after 7, 14 and 21 days of treatment with Compound 1. Cell viability was determined using CellTiter-Glo®2 luminescent cell viability assay.
(§2) Cell culture conditions. MSTO-211H, H2052, H2452, H28, H226 cell lines were obtained from ATCC (Manassas, VA) and were grown in media as recommended by the vendor. For long-term assays, cells were plated in 96-well plates containing. Compound 1. Cell lines were treated with a dose titration of Compound 1 starting at 2 μM top concentration.
(§3) Cellular assay—assessment of cell viability. Relative cell numbers were assessed by CellTiter-Glo® 2.0 luminescent cell viability assay (Promega Catalog #G9243) using a Perkin Elmer EnVision Alpha Reader (Model #2104, Waltham, MA). 50 μL of CellTiter-Glo® 2.0 reagent was added to each well containing 100 μL cell suspension and incubated for 30 min at RT with shaking at low speed. GraphPad Prism was used for curve fitting and GI50 determinations.

H226 = assay: CellTiter-Glo 2.0 long-term cell viability assay; format: cell-based; settings: Homo sapiens, H226, BAP1 mutant
Method: as §1, §2, §3

H2452 = assay: CellTiter-Glo 2.0 long-term cell viability assay; format: cell-based; settings: Homo sapiens, H2452, BAP1 mutant
Method: as §1, §2, §3

H28 = assay: CellTiter-Glo 2.0 long-term cell viability assay; format: cell-based; settings: Homo sapiens, H28, BAP1 mutant
Method: as §1, §2, §3

MSTO-211H = assay: CellTiter-Glo 2.0 long-term cell viability assay; format: cell-based; settings: Homo sapiens, BAP1 wildtype
Method: as §1, §2, §3

PXF 1118 = assay: pleural mesothelioma PDX model, tumor growth inhibition; format: in vivo, NMRI nu/nu mice; settings: PXF 1118, 75 mg/kg p.o. QD; without a statistically significant reduction in tumor volume
Method: (§4) Compound 1 was evaluated in 6 patient-derived xenograft (PDX) models of pleural mesothelioma with BAP1 alterations (Table 3) implanted subcutaneously in immunodeficient mice (NSG mice in the case of tumor model PXF 2328, NMRI nu/nu mice for all other tumor models). Each experiment had two groups of generally five mice each enrolled at tumor volumes in the range of 53.9-198.9 mm^3. The first group was a vehicle control group, while the second group was treated with Compound 1, administered orally (p.o.) once daily (QD) at a dose level of 75 mg/kg. The duration of the experiments ranged between 30 and 65 days.
(§5) Antitumor efficacy of all groups was assessed using the vehicle control group as a reference. Tumor growth inhibition was determined by the comparison of tumor growth in the test groups with the vehicle control group and is expressed as the maximum tumor growth inhibition (TGI) value in percent. The statistical significance of differences between test and control groups was assessed using the non-parametric U-test.

PXF 2443 = assay: as above; format: in vivo, NMRI nu/nu mice; settings: PXF 2443, 75 mg/kg p.o. QD; without a statistically significant reduction in tumor volume
Method: as §4, §5

PXF 537 = assay: as above; format: in vivo, NMRI nu/nu mice; settings: PXF 537, 75 mg/kg p.o. QD; statistically significant reduction in tumor volume vs control
Method: as §4, §5

PXF 541 = assay: as above; format: in vivo, NMRI nu/nu mice; settings: PXF 541, 75 mg/kg p.o. QD; statistically significant reduction in tumor volume vs vehicle (U-test)
Method: as §4, §5

PXF 680 = assay: as above; format: in vivo, NMRI nu/nu mice; settings: PXF 680, 75 mg/kg p.o. QD; statistically significant reduction in tumor volume vs vehicle (U-test)
Method: as §4, §5

PXF 2328 = assay: as above; format: in vivo; settings: PXF 2328 implanted in NSG mice, 75 mg/kg p.o. QD
Method: as §4, §5

[2] = tested on: pleural mesothelioma PDX models with BAP1 alterations; assay: panel of 6 PDX models of pleural mesothelioma with BAP1 alterations; format: in vivo, mice; settings: 75 mg/kg p.o. QD
Method: as §4, §5

[3] = 350 mg/day oral monotherapy, efficacy evaluable patients N = 9

GI50 (H2052; NCI-H2052, 168 h, Day 7): > 2000 nM
GI50 (H2052; NCI-H2052, 336 h, Day 14): > 2000 nM
GI50 (H2052; NCI-H2052, 504 h, Day 21): > 2000 nM
GI50 (H226; NCI-H226, 168 h, Day 7): > 2000 nM
GI50 (H226; NCI-H226, 336 h, Day 14): > 2000 nM
GI50 (H226; NCI-H226, 504 h, Day 21): > 2000 nM
GI50 (H2452; NCI-H2452, 168 h, Day 7): > 2000 nM
GI50 (H2452; NCI-H2452, 336 h, Day 14): 6 nM
GI50 (H2452; NCI-H2452, 504 h, Day 21): 5 nM
SMILES: COC1CN([C@H]2CC[C@H]([C@@]3(C)Oc4c(Cl)cc(C(=O)NCc5c(SC)cc(C)[nH]c5=O)c(C)c4O3)CC2)C1 [Compound 1, (R)-7-chloro-2-((1r,4R)-4-(3-methoxyazetidin-1-yl)cyclohexyl)-2,4-dimethyl-N-((6-methyl-4-(methylthio)-2-oxo-1,2-dihydropyridin-3-yl)methyl)benzo[d][1,3]dioxole-5-carboxamide]
Complete response [1, 3]: 0 n (%)
Partial response [1, 3]: 2 (22.2) n (%)
Progressive disease [1, 3]: 3 (33.3) n (%)
Stable disease [1, 3]: 4 (44.4) n (%)
patients showing (partial) response and stable disease [1]: > 60%
GI50 (H28; NCI-H28, 168 h, Day 7): > 2000 nM
GI50 (H28; NCI-H28, 336 h, Day 14): 234 nM
GI50 (H28; NCI-H28, 504 h, Day 21): 45 nM
GI50 (MSTO-211H; 168 h, Day 7): > 2000 nM
GI50 (MSTO-211H; 336 h, Day 14): > 2000 nM
GI50 (MSTO-211H; 504 h, Day 21): > 2000 nM
effect on tumor growth (PXF 1118): slowed growth
effect on tumor growth (PXF 2443): slowed growth
effect on tumor growth (PXF 537): almost stasis
maximum tumor growth inhibition (TGI) (PXF 541): > 100%
maximum tumor growth inhibition (TGI) (PXF 680): > 100%
effect on tumor growth (PXF 2328): inactive
PDX models with a relevant TGI of greater than 50% [2]: 4 out of the 6
